# Laboratory results from the supplement of paper PMC10307832.
# Tests used:
# Assay in all cases: relative viability (nuclei count vs DMSO), 5 days (fraction); higher = more cells survive
# [1] = compound: Nc1ccn([C@@H]2O[C@H](CO)[C@@H](O)C2(F)F)c(=O)n1 [Gemcitabine] + COc1cc2c(Oc3ccc(NC(=O)C4(C(=O)Nc5ccc(F)cc5)CC4)cc3F)ccnc2cc1OCCCN1CCOCC1 [Foretinib] (partner 0.25 µM)
# In short: (§1)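 Relative viability divides the nuclei count in treated wells by that in vehicle wells. Lung cancer cell lines were seeded in 1536-well plates, dosed by pin tool the next day, and fixed and stained after 5 days in one step with final 0.05% Triton X-100, 1% formaldehyde and 1 ug/ml Hoechst. Dosing was a single drug or a fixed anchor-drug dose plus five library-drug doses (not always all listed) in √10 steps, and values are medians of duplicate plates imaged at 4×.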
# [2] = compound: Nc1ccn([C@@H]2O[C@H](CO)[C@@H](O)C2(F)F)c(=O)n1 [Gemcitabine] + CCNC(=O)c1noc(-c2cc(C(C)C)c(O)cc2O)c1-c1ccc(CN2CCOCC2)cc1 [Luminespib] (partner 0.01 µM)
# In short: as §1
# [3] = compound: Nc1ccn([C@@H]2O[C@H](CO)[C@@H](O)C2(F)F)c(=O)n1 [Gemcitabine] + Nc1ncn([C@H]2C[C@H](O)[C@@H](CO)O2)c(=O)n1 [Decitabine] (partner 2 µM)
# In short: as §1
# [4] = compound: Nc1ccn([C@@H]2O[C@H](CO)[C@@H](O)C2(F)F)c(=O)n1 [Gemcitabine] + Cc1nc(Nc2ncc(C(=O)Nc3c(C)cccc3Cl)s2)cc(N2CCN(CCO)CC2)n1 [Dasatinib] (partner 0.075 µM)
# In short: as §1
Cell Line,relative viability ([1]; first compound 0.001 µM),relative viability ([1]; first compound 0.003162 µM),relative viability ([1]; first compound 0.01 µM),relative viability ([1]; first compound 0.03162 µM),relative viability ([1]; first compound 0.1 µM),relative viability ([2]; first compound 0.001 µM),relative viability ([2]; first compound 0.003162 µM),relative viability ([2]; first compound 0.01 µM),relative viability ([2]; first compound 0.03162 µM),relative viability ([2]; first compound 0.1 µM),relative viability ([3]; first compound 0.001 µM),relative viability ([3]; first compound 0.003162 µM),relative viability ([3]; first compound 0.01 µM),relative viability ([3]; first compound 0.03162 µM),relative viability ([3]; first compound 0.1 µM),relative viability ([4]; first compound 0.001 µM),relative viability ([4]; first compound 0.003162 µM),relative viability ([4]; first compound 0.01 µM),relative viability ([4]; first compound 0.03162 µM),relative viability ([4]; first compound 0.1 µM)
NCI-H1755,1,0.909,0.879,0.564,0.29,0.451,0.505,0.491,0.346,0.26,0.708,0.667,0.65,0.568,0.469,0.454,0.457,0.392,0.243,0.207
NCI-H1793,0.71,0.652,0.437,0.141,0.136,0.17,0.179,0.15,0.125,0.137,0.512,0.433,0.271,0.156,0.162,0.368,0.388,0.186,0.12,0.12
NCI-H1915,1.1,1.1,1.04,0.908,0.468,0.826,0.759,0.693,0.669,0.356,0.255,0.262,0.254,0.258,0.182,0.357,0.344,0.295,0.255,0.181
NCI-H1944,0.891,0.992,0.847,0.345,0.199,0.73,0.764,0.758,0.458,0.183,0.44,0.409,0.443,0.381,0.193,0.208,0.209,0.182,0.153,0.123
NCI-H1975,1.03,0.962,0.555,0.156,0.138,0.173,0.158,0.154,0.182,0.13,0.307,0.373,0.387,0.197,0.167,0.419,0.574,0.241,0.0982,0.103
NCI-H1993,0.561,0.833,0.61,0.63,0.588,0.61,0.85,0.579,0.508,0.45,0.549,0.524,0.564,0.44,0.356,0.617,0.529,0.446,0.509,0.42
NCI-H2009,1.26,0.938,0.404,0.185,0.153,1.08,0.751,0.325,0.179,0.126,0.363,0.264,0.233,0.141,0.114,0.297,0.219,0.101,0.101,0.0766
NCI-H2023,0.966,0.643,0.586,0.124,0.0582,0.96,0.755,0.623,0.141,0.0596,0.224,0.217,0.126,0.0929,0.0689,0.529,0.533,0.207,0.0853,0.0604
NCI-H2085,0.897,0.889,0.598,0.431,0.241,0.435,0.477,0.369,0.298,0.263,0.583,0.507,0.486,0.425,0.428,0.221,0.232,0.287,0.206,0.158
NCI-H2087,1.14,0.708,0.245,0.164,0.111,0.178,0.159,0.14,0.147,0.138,0.283,0.307,0.179,0.086,0.0869,0.746,0.499,0.169,0.0893,0.0871
NCI-H2126,1.15,1.17,1.15,0.674,0.324,0.975,0.828,0.773,0.414,0.257,0.604,0.546,0.546,0.423,0.299,0.647,0.6,0.548,0.389,0.19
NCI-H2170,1.02,1.03,0.909,0.3,0.518,0.564,0.633,0.575,0.169,0.151,0.457,0.455,0.349,0.201,0.126,0.609,0.673,0.415,0.114,0.104
NCI-H2342,1.08,1,0.712,0.389,0.258,0.591,0.61,0.543,0.376,0.331,0.694,0.65,0.532,0.537,0.337,0.312,0.277,0.282,0.233,0.293
NCI-H2347,0.817,0.731,0.826,0.492,0.35,0.412,0.513,0.302,0.448,0.282,0.537,0.645,0.58,0.478,0.539,0.291,0.304,0.257,0.22,0.195
NCI-H2405,0.996,1,0.676,0.254,0.229,0.73,0.746,0.587,0.207,0.216,0.735,0.676,0.427,0.31,0.226,0.2,0.196,0.199,0.151,0.159
NCI-H3122,0.94,0.959,0.89,0.123,0.0966,0.1,0.0845,0.0643,0.0629,0.0705,0.361,0.396,0.389,0.175,0.146,0.852,0.89,0.588,0.0797,0.0782
